According to ChEMBL document CHEMBL3352413, “4-Amino-2-arylamino-6-(2,6-dichlorophenyl)-pyrido[2,3-d]pyrimidin-7-(8H)-ones as BCR kinase inhibitors for B lymphoid malignancies” (Eur J Med Chem, 2014):
The source made the active and inactive calls. No cut-off for these calls is given here.

Key:
[1] = Growth inhibition of human HBL2 cells after 24 hrs by MTT assay; format: functional; conditions: HBL2, 24 h
[2] = Growth inhibition of human HBL2 cells after 48 hrs by MTT assay; format: functional; conditions: HBL2, 48 h
[3] = Growth inhibition of human Rec1 cells after 24 hrs by MTT assay; format: functional; conditions: Rec1, 24 h
[4] = Growth inhibition of human Rec1 cells after 48 hrs by MTT assay; format: functional; conditions: Rec1, 48 h
[5] = Growth inhibition of bortezomib-resistant human JBR cells after 24 hrs by MTT assay; format: functional
[6] = Growth inhibition of bortezomib-resistant human JBR cells after 48 hrs by MTT assay; format: functional
PBMC = assay: Induction of apoptotic cell death in human PBMCs at 1 to 10 uM after 24 hrs by Annexin V and propidium iodide staining based flow cytometry
[7] = Solubility in water; format: physicochemical
[8] = target: Tyrosine-protein kinase BTK (Homo sapiens) (UniProt Q06187); assay: Inhibition of BTK (unknown origin) assessed as enzyme residual activity at 10 uM by radiometric protein kinase assay
[9] = target: Tyrosine-protein kinase Lyn (Homo sapiens) (UniProt P07948); assay: Inhibition of Lyn (unknown origin) assessed as enzyme residual activity at 10 uM by radiometric protein kinase assay
[10] = target: Tyrosine-protein kinase SYK (Homo sapiens) (UniProt P43405); assay: Inhibition of Syk (unknown origin) assessed as enzyme residual activity at 10 uM by radiometric protein kinase assay
[11] = Inhibition of cell proliferation of human Rec1 cells at 5 uM after 24 hrs by MTT assay; format: functional; conditions: Rec1, 24 h
[12] = Growth inhibition of human UPN1 cells after 24 hrs by MTT assay; format: functional; conditions: UPN1, 24 h
[13] = Growth inhibition of human JeKo1 cells after 24 hrs by MTT assay; format: functional; conditions: JeKo-1, 24 h
[14] = Growth inhibition of human JVM2 cells after 24 hrs by MTT assay; format: functional; conditions: JVM-2, 24 h
[15] = Growth inhibition of human Maver1 cells after 24 hrs by MTT assay; format: functional; conditions: Maver1, 24 h
[16] = Growth inhibition of human Mino cells after 24 hrs by MTT assay; format: functional
[17] = Growth inhibition of human GRANTA-519 cells after 24 hrs by MTT assay; format: functional; conditions: Granta-519, 24 h
[18] = Growth inhibition of human Z138C cells after 24 hrs by MTT assay; format: functional
[19] = Growth inhibition of human MEC2 cells after 24 hrs by MTT assay; format: functional; conditions: MEC2, 24 h
[20] = Growth inhibition of human JVM13 cells after 24 hrs by MTT assay; format: functional; conditions: JVM13, 24 h
[21] = Growth inhibition of human MEC1 cells after 24 hrs by MTT assay; format: functional; conditions: MEC1, 24 h
[22] = Growth inhibition of human DOHH2 cells after 24 hrs by MTT assay; format: functional; conditions: DOHH-2, 24 h
WSU-NHL [23] = assay: Growth inhibition of human WSU-NHL cells after 24 hrs by MTT assay; format: functional
[24] = Growth inhibition of human WSU-FSCCL cells after 24 hrs by MTT assay; format: functional
[25] = Growth inhibition of human SC1 cells after 24 hrs by MTT assay; format: functional; conditions: SC-1, 24 h
[26] = Growth inhibition of human OCI-Ly8 cells after 24 hrs by MTT assay; format: functional; conditions: OCI-Ly8, 24 h
[27] = Growth inhibition of human SUDHL8 cells after 24 hrs by MTT assay; format: functional; conditions: SU-DHL-8, 24 h
[28] = Growth inhibition of human U2932 cells after 24 hrs by MTT assay; format: functional; conditions: U2932, 24 h
[29] = Growth inhibition of human SUDHL16 cells after 24 hrs by MTT assay; format: functional; conditions: SU-DHL-16, 24 h
[30] = Growth inhibition of human JeKo1 cells after 48 hrs by MTT assay; format: functional; conditions: JeKo-1, 48 h
[31] = Growth inhibition of human UPN1 cells after 48 hrs by MTT assay; format: functional; conditions: UPN1, 48 h
[32] = Growth inhibition of human JVM2 cells after 48 hrs by MTT assay; format: functional; conditions: JVM-2, 48 h
[33] = Growth inhibition of human Maver1 cells after 48 hrs by MTT assay; format: functional; conditions: Maver1, 48 h
[34] = Growth inhibition of human Mino cells after 48 hrs by MTT assay; format: functional
[35] = Growth inhibition of human GRANTA-519 cells after 48 hrs by MTT assay; format: functional; conditions: Granta-519, 48 h
[36] = Growth inhibition of human Z138C cells after 48 hrs by MTT assay; format: functional
[37] = Growth inhibition of human MEC2 cells after 48 hrs by MTT assay; format: functional; conditions: MEC2, 48 h
[38] = Growth inhibition of human JVM13 cells after 48 hrs by MTT assay; format: functional; conditions: JVM13, 48 h
[39] = Growth inhibition of human MEC1 cells after 48 hrs by MTT assay; format: functional; conditions: MEC1, 48 h
[40] = Growth inhibition of human DOHH2 cells after 48 hrs by MTT assay; format: functional; conditions: DOHH-2, 48 h
WSU-NHL [41] = assay: Growth inhibition of human WSU-NHL cells after 48 hrs by MTT assay; format: functional
[42] = Growth inhibition of human WSU-FSCCL cells after 48 hrs by MTT assay; format: functional
[43] = Growth inhibition of human SC1 cells after 48 hrs by MTT assay; format: functional; conditions: SC-1, 48 h
[44] = Growth inhibition of human OCI-Ly8 cells after 48 hrs by MTT assay; format: functional; conditions: OCI-Ly8, 48 h
[45] = Growth inhibition of human SUDHL8 cells after 48 hrs by MTT assay; format: functional; conditions: SU-DHL-8, 48 h
[46] = Growth inhibition of human U2932 cells after 48 hrs by MTT assay; format: functional; conditions: U2932, 48 h
[47] = Growth inhibition of human SUDHL16 cells after 48 hrs by MTT assay; format: functional; conditions: SU-DHL-16, 48 h
[48] = target: Tyrosine-protein kinase Lyn (Homo sapiens) (UniProt P07948); assay: Inhibition of Lyn phosphorylation in human Rec1 cells at 2.5 uM incubated for 6 hrs by Western blotting method; format: cell-based
[49] = target: Tyrosine-protein kinase SYK (Homo sapiens) (UniProt P43405); assay: Inhibition of Syk phosphorylation in human Rec1 cells at 0.1 to 5 uM incubated for 6 hrs by Western blotting method; format: cell-based
[50] = target: Tyrosine-protein kinase Lyn (Homo sapiens) (UniProt P07948); assay: Inhibition of Lyn phosphorylation in human Rec1 cells at 0.1 to 5 uM incubated for 6 hrs by Western blotting method; format: cell-based
[51] = target: Tyrosine-protein kinase BTK (Homo sapiens) (UniProt Q06187); assay: Inhibition of BTK phosphorylation in human Rec1 cells at 1 uM incubated for 6 hrs by Western blotting method; format: cell-based
[52] = target: Tyrosine-protein kinase BTK (Homo sapiens) (UniProt Q06187); assay: Inhibition of BTK phosphorylation in human Rec1 cells at 5 uM incubated for 6 hrs by Western blotting method; format: cell-based

Tyrosine-protein kinase Lyn (Homo sapiens), sequence (P07948 2-512 limits assumed): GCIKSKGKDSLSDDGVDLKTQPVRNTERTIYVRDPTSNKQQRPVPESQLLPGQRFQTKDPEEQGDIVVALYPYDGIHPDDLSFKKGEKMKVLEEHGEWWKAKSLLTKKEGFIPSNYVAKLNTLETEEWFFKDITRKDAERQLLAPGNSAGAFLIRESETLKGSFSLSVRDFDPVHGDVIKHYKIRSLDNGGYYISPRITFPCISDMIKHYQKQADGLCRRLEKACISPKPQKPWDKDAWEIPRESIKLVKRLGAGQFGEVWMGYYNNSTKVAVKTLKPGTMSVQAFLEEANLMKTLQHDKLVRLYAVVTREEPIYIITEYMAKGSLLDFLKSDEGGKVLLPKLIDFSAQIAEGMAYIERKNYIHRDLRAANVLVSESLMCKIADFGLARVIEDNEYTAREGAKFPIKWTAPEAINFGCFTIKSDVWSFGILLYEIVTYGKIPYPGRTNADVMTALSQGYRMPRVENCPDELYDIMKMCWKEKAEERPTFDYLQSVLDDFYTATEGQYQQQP
Tyrosine-protein kinase BTK (Homo sapiens), sequence (Q06187 whole entry): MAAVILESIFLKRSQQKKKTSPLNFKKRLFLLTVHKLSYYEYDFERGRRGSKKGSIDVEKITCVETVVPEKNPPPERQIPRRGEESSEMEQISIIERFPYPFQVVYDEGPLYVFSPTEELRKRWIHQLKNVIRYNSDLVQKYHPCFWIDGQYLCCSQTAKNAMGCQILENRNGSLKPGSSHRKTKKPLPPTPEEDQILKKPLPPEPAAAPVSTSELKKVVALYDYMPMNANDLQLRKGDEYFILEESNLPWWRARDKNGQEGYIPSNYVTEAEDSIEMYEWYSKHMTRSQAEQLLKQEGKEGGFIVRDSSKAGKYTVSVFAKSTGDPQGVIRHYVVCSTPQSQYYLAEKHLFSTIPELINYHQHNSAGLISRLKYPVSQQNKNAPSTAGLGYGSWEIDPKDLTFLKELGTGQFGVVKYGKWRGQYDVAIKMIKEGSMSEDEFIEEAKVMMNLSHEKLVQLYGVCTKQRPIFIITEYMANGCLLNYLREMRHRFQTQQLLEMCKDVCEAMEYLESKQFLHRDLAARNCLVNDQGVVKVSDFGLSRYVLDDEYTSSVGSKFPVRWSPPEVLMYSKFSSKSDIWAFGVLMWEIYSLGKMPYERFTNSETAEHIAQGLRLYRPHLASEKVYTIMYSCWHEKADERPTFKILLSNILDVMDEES

Structure (SMILES): Nc1nc(Nc2ccccc2)nc2c1CC(c1c(Cl)cccc1Cl)C(=O)N2 (stereo not drawn)
- GI50 [1]: 12 µM
- GI50 [2]: 5.7 µM
- GI50 [3]: > 100 µM
- GI50 [4]: 52.3 µM

Structure (SMILES): Nc1nc(Nc2ccccc2)nc2[nH]c(=O)c(-c3c(Cl)cccc3Cl)cc12
- GI50 [1]: 8.8 µM
- GI50 [2]: > 100 µM
- GI50 [3]: 12.1 µM
- GI50 [4]: > 100 µM

Structure (SMILES): Nc1nc(N)c2c(n1)NC(=O)C(c1c(Cl)cccc1Cl)C2 (stereo not drawn)
- GI50 [1]: > 100 µM
- GI50 [2]: > 100 µM
- GI50 [3]: > 100 µM
- GI50 [4]: > 100 µM

Structure (SMILES): Cn1c(=O)c(-c2c(Cl)cccc2Cl)cc2c(N)nc(Nc3ccccc3)nc21
- GI50 [1]: 1.7 µM
- GI50 [2]: 0.4 µM
- GI50 [3]: 1.8 µM
- GI50 [4]: 0.7 µM
- GI50 [5]: 3.1 µM
- GI50 [6]: 0.9 µM
- Activity (PBMC): 3%
- solubility [7]: < 1 µg/mL

Structure (SMILES): CN1CCN(c2ccc(Nc3nc(N)c4cc(-c5c(Cl)cccc5Cl)c(=O)n(C)c4n3)cc2)CC1.CS(=O)(=O)O
- solubility [7]: 10000 µg/mL

Structure (SMILES): Cn1c(=O)c(-c2c(Cl)cccc2Cl)cc2c(N)nc(Nc3ccc(NCCN4CCOCC4)cc3)nc21
- Activity [8]: 10%
- Activity [9]: 0%
- Activity [10]: 31%

Structure (SMILES): CN1CCN(c2ccc(Nc3nc(N)c4cc(-c5c(Cl)cccc5Cl)c(=O)n(C)c4n3)cc2)CC1 [listing 1 of 2 here]
- GI50 [1]: 4.9 µM
- GI50 [2]: 2.6 µM
- GI50 [3]: 3.2 µM
- GI50 [4]: 3 µM
- inhibition at 5 µM [11]: 63%
- GI50 [12]: 3.6 µM
- GI50 [13]: 3.6 µM
- GI50 [14]: 3.6 µM
- GI50 [15]: 3.6 µM
- GI50 [16]: 3.6 µM
- GI50 [17]: 3.6 µM
- GI50 [18]: 3.6 µM
- GI50 [19]: 5.9 µM
- GI50 [20]: 5.9 µM
- GI50 [21]: 5.9 µM
- GI50 [22]: 3.7 µM
- GI50 (WSU-NHL [23]): 3.7 µM
- GI50 [24]: 3.7 µM
- GI50 [25]: 3.7 µM
- GI50 [26]: 5.4 µM
- GI50 [27]: 5.4 µM
- GI50 [28]: 5.4 µM
- GI50 [29]: 5.4 µM
- GI50 [30]: 3 µM
- GI50 [31]: 3 µM
- GI50 [32]: 3 µM
- GI50 [33]: 3 µM
- GI50 [34]: 3 µM
- GI50 [35]: 3 µM
- GI50 [36]: 3 µM
- GI50 [37]: 4.9 µM
- GI50 [38]: 4.9 µM
- GI50 [39]: 4.9 µM
- GI50 [40]: 2.7 µM
- GI50 (WSU-NHL [41]): 2.7 µM
- GI50 [42]: 2.7 µM
- GI50 [43]: 2.7 µM
- GI50 [44]: 5 µM
- GI50 [45]: 5 µM
- GI50 [46]: 5 µM
- GI50 [47]: 5 µM

Structure (SMILES): CN1C(=O)C(c2c(Cl)cccc2Cl)Cc2c(N)nc(Nc3ccccc3)nc21 (stereo not drawn)
- GI50 [1]: > 100 µM
- GI50 [2]: 1.7 µM
- GI50 [3]: 67.2 µM
- GI50 [4]: 1.3 µM

Structure (SMILES): Nc1nc(Nc2ccccc2)nc2c1CC(c1c(Cl)cccc1Cl)CN2 (stereo not drawn)
- GI50 [1]: 7.5 µM
- GI50 [2]: 2.4 µM
- GI50 [3]: 4 µM
- GI50 [4]: 1.3 µM

Structure (SMILES): C=CC(=O)N1CCC[C@@H](n2nc(-c3ccc(Oc4ccccc4)cc3)c3c(N)ncnc32)C1 [IBRUTINIB]
- inhibition [48]: Active
- inhibition at 5 µM [11]: 3%

Structure (SMILES): Cn1c(=O)c(-c2c(Cl)cccc2Cl)cc2c(N)nc(Nc3ccc(OCCN4CCOCC4)cc3)nc21
- Activity [8]: 16%
- Activity [9]: 0%
- Activity [10]: 44%

Structure (SMILES): CN1CCN(c2ccc(Nc3nc(N)c4cc(-c5c(Cl)cccc5Cl)c(=O)n(C)c4n3)cc2)CC1 [listing 2 of 2 here]
- Activity [8]: 3%
- Activity [9]: -1%
- Activity [10]: 9%
- inhibition [49]: Dose-dependent effect
- inhibition [50]: Dose-dependent effect
- inhibition [51]: 10%
- inhibition [52]: 40%
- inhibition [48]: Active

Structure (SMILES): COc1cc(Nc2ncc(F)c(Nc3ccc4c(n3)NC(=O)C(C)(C)O4)n2)cc(OC)c1OC [R-406]
- inhibition [48]: Active
- inhibition at 5 µM [11]: 31%
